Measurements as given in patent publication US20080160099A1, “Methods For Treating or Preventing a Vascular Disease” (THE TRUSTEES OF COLUMBIA UNIVERSITY IN THE CITY OF NEW YORK, priority 2004, published 2008).

How the values were obtained:
Format in all cases: biochemical
[1] = target: T1, MMP-2 (Homo sapiens, UniProt P08253); assay: MMP-2 activity in lysates of fibroblasts cultured from AAA specimens, gelatin zymography with densitometry; details: for MMP-2 inhibitory ability (in words): aneurysmal fibroblast MMP-2; for MMP-2 Inhibitory Activity: relative, aneurysmal fibroblast lysates, 1 hour incubation on ice
T1 construct: endogenous in cells; host or cells: fibroblasts cultured from AAA (abdominal aortic aneurysm) specimens
T1 sequence (P08253 110-660): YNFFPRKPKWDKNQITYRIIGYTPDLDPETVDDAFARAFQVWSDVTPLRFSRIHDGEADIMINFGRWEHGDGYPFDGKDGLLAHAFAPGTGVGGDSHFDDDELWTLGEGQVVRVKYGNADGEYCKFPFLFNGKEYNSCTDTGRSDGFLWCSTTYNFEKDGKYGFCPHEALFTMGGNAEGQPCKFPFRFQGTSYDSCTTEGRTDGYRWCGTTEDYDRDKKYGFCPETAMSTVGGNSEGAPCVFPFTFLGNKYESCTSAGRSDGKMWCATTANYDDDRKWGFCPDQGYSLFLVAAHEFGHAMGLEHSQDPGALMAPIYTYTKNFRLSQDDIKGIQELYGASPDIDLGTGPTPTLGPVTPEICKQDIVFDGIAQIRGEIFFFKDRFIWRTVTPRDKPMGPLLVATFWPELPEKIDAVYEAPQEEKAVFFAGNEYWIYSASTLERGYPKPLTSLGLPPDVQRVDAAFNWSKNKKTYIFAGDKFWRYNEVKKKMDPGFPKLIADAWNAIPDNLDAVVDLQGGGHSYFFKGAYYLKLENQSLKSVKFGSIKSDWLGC
Protocol: Properties of different test compounds against MMP-2 activity of aneurysmal fibroblast origin were examined on 10% polyacrylamide gels containing 1.0 mg/mL of gelatin. Fibroblasts cultured from AAA specimens were lysed using the CellLytic-M lysis/extraction reagent. The protein concentration of each supernatant was determined using the Bradford method using bovine serum albumin as a standard. The aortic fibroblast lysates were incubated alone (control) or with an illustrative Compound or Extract of the Invention at various concentrations for 1 hour on ice. After test compound incubation, equivalent amounts of proteins (30 μg) were mixed with an equal volume of sample buffer (2% SDS, 125 mM Tris-HCL, pH 6.8, 10% glycerol and 0.001% bromophenol blue) and the resulting mixture was subjected to electrophoresis in Trir-glycine el. buffer (25 mMTris pH 8.3, 250 mM Glycine, 0.1% SDS) under denatured but non-reduced conditions. After completion of electrophoresis, the gels were incubated in 2% Triton X-100 for 30 min at room temperature to ensure complete removal of SDS. The gels were then incubated at 37° C. overnight in development buffer (0.005M Tris-HCl (pH 7.5), 0.2MNaCl, 0.005MCaCl2, and 0.02% Brij-35) (Bio-Rad). Gels were stained with 0.05% Coomassie blue R250 (Bio-Rad) for 30 min and destained twice in a mixture of 40% methanol and 10% acetic acid for 20 min. Enzyme activity was detected as unstained bands on a blue background. Quantity One (Bio-Rad Version 4.3.1) was used as a densitometer to quantitate test compound inhibitory ability.

[2] = tested on: C5a; assay: Complement factor C5a levels in normal human serum, with or without HAGG; details: alone and with HAGG, 30 minutes at 37° C.
Protocol: (§1) An experiment to measure the complement factors C3a and C5a was carried out at […] for 30 minutes using heat-aggregated gamma globulin (HAGG, at 14 mg/mL), a complement activator with known activity, as a positive control.
(§2) Four separate mixtures were prepared by mixing 8 parts of normal human serum with: (1) 2 parts saline, (2) 1 part saline and 1 part HAGG, (3) 1 part saline and 1 part fucosylated chondroitin sulfate (FCS), or (4) 1 part HAGG and 1 part FCS. These four mixtures were then incubated for 30 minutes at 37° C. and the complement was examined by assaying for levels of C3a and C5a.

[3] = tested on: total complement; assay: Total complement activity (CH50) in human serum; details: 30 minutes at 37° C.
Protocol: Blood was collected from a healthy human donor and allowed to clot at room temperature for 60 minutes. The serum was separated from the clotted blood and transferred to a clean tube. Fucosylated chondroitin sulfate (FCS) was incubated in concentrations of 0.1 mg/mL, 0.4 mg/mL and 1 mg/mL for 30 minutes at 37° C. and the complement was examined by assaying total complement activity (CH50). Complement inhibition was about 40% at a FCS concentration of 0.1 mg/mL, about 83% at a concentration of 0.4 mg/mL and complete at a concentration of 1.0 mg/mL.

[4] = tested on: C3a; assay: Complement factor C3a levels in normal human serum, with or without HAGG; details: alone and with HAGG, 30 minutes at 37° C.
Protocol: as §1, §2

MMP-2 Inhibitory Activity [1] | Molecule | MMP-2 inhibitory ability (in words) [1] | inhibitory activity toward C5a [2] | Complement inhibition (CH50) ([3]; 0.1 mg/mL) | Complement inhibition (CH50) ([3]; 0.4 mg/mL) | Complement inhibition (CH50) ([3]; 1.0 mg/mL) | inhibitory activity toward C3a [4]
+++ | fucosylated chondroitin sulfate | inhibit aneurysmal fibroblast MMP-2 activity | strong inhibitory activity | about 40% | about 83% | complete | strong inhibitory activity
+ | CCC(C)CCCCCCCCCCC(=O)O (centres unmarked) [12-methyltetradecanoic acid] | inhibit aneurysmal fibroblast MMP-2 activity |  |  |  |  | 

Molecule | MMP-2 Inhibitory Activity [1] | MMP-2 inhibitory ability (in words) [1] | inhibitory activity toward C5a [2] | Complement inhibition (CH50) ([3]; 0.1 mg/mL) | Complement inhibition (CH50) ([3]; 0.4 mg/mL) | Complement inhibition (CH50) ([3]; 1.0 mg/mL) | inhibitory activity toward C3a [4]
Oc1cc(O)c2c(c1)O[C@H](c1cc(O)c(O)c(O)c1)[C@H](O)C2 [(−)-epigallocatechin] | + | inhibit aneurysmal fibroblast MMP-2 activity |  |  |  |  | 
